From patent US12077503B2, “Substituted cyclic amides and their use as herbicides” (FMC CORPORATION, priority 2015, dated 2024)

Columns and labels:
Type in all cases: in vivo
[1] = tested on: redroot pigweed (Amaranthus retroflexus); assay: Test G Post-Emergence Protocol; conditions: Amaranthus retroflexus, post-emergence, 312 h, read-out: Pigweed, Redroot damage rating; for pest or weed control at 15.625 g/ha: 15.625 g ai/ha, evaluated after 13 days (100=total damage to plant; 0=no damage to plant); for pest or weed control at 62.5 g/ha: 62.5 g ai/ha; for pest or weed control at 62.5 g/ha / pest or weed control at 250 g/ha: evaluated after 13 days, 100=total damage to plant, 0=no damage to plant; for pest or weed control at 250 g/ha: 250 g ai/ha
Outline: (§1)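 Seedlings grown 8 days in soil in a glasshouse (24/16 °C day/night, 14 h light, 65% humidity) were sprayed post-emergence with compound in acetone/water 50:50 plus 0.5% Tween 20 at 15.625, 62.5 or 250 g/ha. Damage was scored after 13 days on a 0–100 scale (100 = total damage).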

[2] = tested on: ivy-leaved morning glory (Ipomoea hederacea); assay: Test G Post-Emergence Protocol; conditions: Ipomoea, post-emergence, 312 h, read-out: Morningglory, Ivy-leaved damage rating; for pest or weed control at 15.625 g/ha: 15.625 g ai/ha, evaluated after 13 days (100=total damage to plant; 0=no damage to plant); for pest or weed control at 62.5 g/ha: 62.5 g ai/ha; for pest or weed control at 62.5 g/ha / pest or weed control at 250 g/ha: evaluated after 13 days, 100=total damage to plant, 0=no damage to plant; for pest or weed control at 250 g/ha: 250 g ai/ha
Outline: as §1

[3] = tested on: giant foxtail (Setaria faberi); assay: Test G Post-Emergence Protocol; conditions: Setaria faberi, post-emergence, 312 h, read-out: Foxtail, Giant damage rating; for pest or weed control at 15.625 g/ha: 15.625 g ai/ha, evaluated after 13 days (100=total damage to plant; 0=no damage to plant); for pest or weed control at 62.5 g/ha: 62.5 g ai/ha; for pest or weed control at 62.5 g/ha / pest or weed control at 250 g/ha: evaluated after 13 days, 100=total damage to plant, 0=no damage to plant; for pest or weed control at 250 g/ha: 250 g ai/ha
Outline: as §1

[4] = tested on: velvetleaf (Abutilon theophrasti); assay: Test G Post-Emergence Protocol; conditions: Abutilon theophrasti, post-emergence, 312 h, read-out: Velvetleaf damage rating; for pest or weed control at 15.625 g/ha: 15.625 g ai/ha, evaluated after 13 days (100=total damage to plant; 0=no damage to plant); for pest or weed control at 62.5 g/ha: 62.5 g ai/ha; for pest or weed control at 62.5 g/ha / pest or weed control at 250 g/ha: evaluated after 13 days, 100=total damage to plant, 0=no damage to plant; for pest or weed control at 250 g/ha: 250 g ai/ha
Outline: as §1

[5] = tested on: barnyardgrass (Echinochloa crus-galli); assay: Test G Post-Emergence Protocol; conditions: Echinochloa crus-galli, post-emergence, 312 h, read-out: Barnyardgrass damage rating; for pest or weed control at 15.625 g/ha: 15.625 g ai/ha, evaluated after 13 days (100=total damage to plant; 0=no damage to plant); for pest or weed control at 62.5 g/ha: 62.5 g ai/ha; for pest or weed control at 62.5 g/ha / pest or weed control at 250 g/ha: evaluated after 13 days, 100=total damage to plant, 0=no damage to plant; for pest or weed control at 250 g/ha: 250 g ai/ha
Outline: as §1

corn (Zea mays) [6] = assay: Test G Post-Emergence Protocol; conditions: Zea mays, post-emergence, 312 h, read-out: Corn damage rating; for plant injury at 15.625 g/ha: 15.625 g ai/ha, evaluated after 13 days (100=total damage to plant; 0=no damage to plant); for plant injury at 62.5 g/ha: 62.5 g ai/ha; for plant injury at 62.5 g/ha / plant injury at 250 g/ha: evaluated after 13 days, 100=total damage to plant, 0=no damage to plant; for plant injury at 250 g/ha: 250 g ai/ha
Outline: as §1

[7] = tested on: redroot pigweed (Amaranthus retroflexus); assay: Test G Pre-Emergence Protocol; conditions: Amaranthus retroflexus, pre-emergence, 312 h, evaluated after 13 days; for pest or weed control at 15.625 g/ha: 15.625 g ai/ha; for pest or weed control at 15.625 g/ha / pest or weed control at 250 g/ha: read-out: Pigweed, Redroot damage rating (100=total damage to plant; 0=no damage to plant); for pest or weed control at 62.5 g/ha: 62.5 g ai/ha, 100=total damage to plant, 0=no damage to plant, read-out: Pigweed, Redroot damage rating; for pest or weed control at 250 g/ha: 250 g ai/ha
Outline: (§2)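 Seeds were sown in standard soil and kept one day in a glasshouse (24/16° C day/night, 14 h light, 65% humidity), then sprayed with compound in acetone/water (50:50) containing 0.5% Tween 20 at 15.625, 62.5 or 250 g/ha. Damage was scored after 13 days (0 = none, 100 = total).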

[8] = tested on: ivy-leaved morning glory (Ipomoea hederacea); assay: Test G Pre-Emergence Protocol; conditions: Ipomoea, pre-emergence, 312 h, evaluated after 13 days; for pest or weed control at 15.625 g/ha: 15.625 g ai/ha; for pest or weed control at 15.625 g/ha / pest or weed control at 250 g/ha: read-out: Morningglory, Ivy-leaved damage rating (100=total damage to plant; 0=no damage to plant); for pest or weed control at 62.5 g/ha: 62.5 g ai/ha, 100=total damage to plant, 0=no damage to plant, read-out: Morningglory, Ivy-leaved damage rating; for pest or weed control at 250 g/ha: 250 g ai/ha
Outline: as §2

[9] = tested on: giant foxtail (Setaria faberi); assay: Test G Pre-Emergence Protocol; conditions: Setaria faberi, pre-emergence, 312 h, evaluated after 13 days; for pest or weed control at 15.625 g/ha: 15.625 g ai/ha; for pest or weed control at 15.625 g/ha / pest or weed control at 250 g/ha: read-out: Foxtail, Giant damage rating (100=total damage to plant; 0=no damage to plant); for pest or weed control at 62.5 g/ha: 62.5 g ai/ha, 100=total damage to plant, 0=no damage to plant, read-out: Foxtail, Giant damage rating; for pest or weed control at 250 g/ha: 250 g ai/ha
Outline: as §2

[10] = tested on: velvetleaf (Abutilon theophrasti); assay: Test G Pre-Emergence Protocol; conditions: Abutilon theophrasti, pre-emergence, 312 h, evaluated after 13 days; for pest or weed control at 15.625 g/ha: 15.625 g ai/ha; for pest or weed control at 15.625 g/ha / pest or weed control at 250 g/ha: read-out: Velvetleaf damage rating (100=total damage to plant; 0=no damage to plant); for pest or weed control at 62.5 g/ha: 62.5 g ai/ha, 100=total damage to plant, 0=no damage to plant, read-out: Velvetleaf damage rating; for pest or weed control at 250 g/ha: 250 g ai/ha
Outline: as §2

[11] = tested on: barnyardgrass (Echinochloa crus-galli); assay: Test G Pre-Emergence Protocol; conditions: Echinochloa crus-galli, pre-emergence, 312 h, evaluated after 13 days; for pest or weed control at 15.625 g/ha: 15.625 g ai/ha; for pest or weed control at 15.625 g/ha / pest or weed control at 250 g/ha: read-out: Barnyardgrass damage rating (100=total damage to plant; 0=no damage to plant); for pest or weed control at 62.5 g/ha: 62.5 g ai/ha, 100=total damage to plant, 0=no damage to plant, read-out: Barnyardgrass damage rating; for pest or weed control at 250 g/ha: 250 g ai/ha
Outline: as §2

corn (Zea mays) [12] = assay: Test G Pre-Emergence Protocol; conditions: Zea mays, pre-emergence, 312 h, evaluated after 13 days; for plant injury at 15.625 g/ha: 15.625 g ai/ha; for plant injury at 15.625 g/ha / plant injury at 250 g/ha: read-out: Corn damage rating (100=total damage to plant; 0=no damage to plant); for plant injury at 62.5 g/ha: 62.5 g ai/ha, 100=total damage to plant, 0=no damage to plant, read-out: Corn damage rating; for plant injury at 250 g/ha: 250 g ai/ha
Outline: as §2

SMILES: COC(=O)c1cc([C@H]2CN(C)C(=O)[C@@H]2C(=O)Nc2cccc(F)c2F)ccc1C (racemic) [Compound 1683]
- pest or weed control at 15.625 g/ha [1]: 30%
- pest or weed control at 62.5 g/ha [1]: 10%
- pest or weed control at 250 g/ha [1]: 40%
- pest or weed control at 15.625 g/ha [2]: 30%
- pest or weed control at 62.5 g/ha [2]: 30%
- pest or weed control at 250 g/ha [2]: 50%
- pest or weed control at 15.625 g/ha [3]: 70%
- pest or weed control at 62.5 g/ha [3]: 80%
- pest or weed control at 250 g/ha [3]: 80%
- pest or weed control at 15.625 g/ha [4]: 0%
- pest or weed control at 62.5 g/ha [4]: 20%
- pest or weed control at 250 g/ha [4]: 50%
- pest or weed control at 15.625 g/ha [5]: 70%
- pest or weed control at 62.5 g/ha [5]: 70%
- pest or weed control at 250 g/ha [5]: 80%
- plant injury at 15.625 g/ha (corn (Zea mays) [6]): 20%
- plant injury at 62.5 g/ha (corn (Zea mays) [6]): 40%
- plant injury at 250 g/ha (corn (Zea mays) [6]): 80%
- pest or weed control at 15.625 g/ha [7]: 20%
- pest or weed control at 62.5 g/ha [7]: 20%
- pest or weed control at 250 g/ha [7]: 20%
- pest or weed control at 15.625 g/ha [8]: 0%
- pest or weed control at 62.5 g/ha [8]: 10%
- pest or weed control at 250 g/ha [8]: 60%
- pest or weed control at 15.625 g/ha [9]: 70%
- pest or weed control at 62.5 g/ha [9]: 80%
- pest or weed control at 250 g/ha [9]: 90%
- pest or weed control at 15.625 g/ha [10]: 0%
- pest or weed control at 62.5 g/ha [10]: 10%
- pest or weed control at 250 g/ha [10]: 30%
- pest or weed control at 15.625 g/ha [11]: 60%
- pest or weed control at 62.5 g/ha [11]: 70%
- pest or weed control at 250 g/ha [11]: 80%
- plant injury at 15.625 g/ha (corn (Zea mays) [12]): 30%
- plant injury at 62.5 g/ha (corn (Zea mays) [12]): 50%
- plant injury at 250 g/ha (corn (Zea mays) [12]): 80%

SMILES: CN1CC(c2cc(C#N)cc(OC(F)(F)F)c2)C(C(=O)Nc2cccc(F)c2F)C1=O (stereo not drawn) [Compound 1694]
- pest or weed control at 15.625 g/ha [1]: 0%
- pest or weed control at 62.5 g/ha [1]: 0%
- pest or weed control at 250 g/ha [1]: 0%
- pest or weed control at 15.625 g/ha [2]: 0%
- pest or weed control at 62.5 g/ha [2]: 0%
- pest or weed control at 250 g/ha [2]: 0%
- pest or weed control at 15.625 g/ha [3]: 0%
- pest or weed control at 62.5 g/ha [3]: 0%
- pest or weed control at 250 g/ha [3]: 0%
- pest or weed control at 15.625 g/ha [4]: 0%
- pest or weed control at 62.5 g/ha [4]: 0%
- pest or weed control at 250 g/ha [4]: 0%
- pest or weed control at 15.625 g/ha [5]: 0%
- pest or weed control at 62.5 g/ha [5]: 0%
- pest or weed control at 250 g/ha [5]: 0%
- plant injury at 15.625 g/ha (corn (Zea mays) [6]): 0%
- plant injury at 62.5 g/ha (corn (Zea mays) [6]): 0%
- plant injury at 250 g/ha (corn (Zea mays) [6]): 0%
- pest or weed control at 15.625 g/ha [7]: 0%
- pest or weed control at 62.5 g/ha [7]: 0%
- pest or weed control at 250 g/ha [7]: 0%
- pest or weed control at 15.625 g/ha [8]: 0%
- pest or weed control at 62.5 g/ha [8]: 0%
- pest or weed control at 250 g/ha [8]: 0%
- pest or weed control at 15.625 g/ha [9]: 0%
- pest or weed control at 62.5 g/ha [9]: 0%
- pest or weed control at 250 g/ha [9]: 0%
- pest or weed control at 15.625 g/ha [10]: 0%
- pest or weed control at 62.5 g/ha [10]: 0%
- pest or weed control at 250 g/ha [10]: 0%
- pest or weed control at 15.625 g/ha [11]: 0%
- pest or weed control at 62.5 g/ha [11]: 0%
- pest or weed control at 250 g/ha [11]: 0%
- plant injury at 15.625 g/ha (corn (Zea mays) [12]): 0%
- plant injury at 62.5 g/ha (corn (Zea mays) [12]): 0%
- plant injury at 250 g/ha (corn (Zea mays) [12]): 0%
